Assay [1] deals with T1, Human CD73 (amino acid residues 27-549) (Homo sapiens, UniProt P21589).
T1 construct: Human CD73 (amino acid residues 27-549); His tag (N); made in house; host or cells: E. coli
T1 sequence (P21589 27-549): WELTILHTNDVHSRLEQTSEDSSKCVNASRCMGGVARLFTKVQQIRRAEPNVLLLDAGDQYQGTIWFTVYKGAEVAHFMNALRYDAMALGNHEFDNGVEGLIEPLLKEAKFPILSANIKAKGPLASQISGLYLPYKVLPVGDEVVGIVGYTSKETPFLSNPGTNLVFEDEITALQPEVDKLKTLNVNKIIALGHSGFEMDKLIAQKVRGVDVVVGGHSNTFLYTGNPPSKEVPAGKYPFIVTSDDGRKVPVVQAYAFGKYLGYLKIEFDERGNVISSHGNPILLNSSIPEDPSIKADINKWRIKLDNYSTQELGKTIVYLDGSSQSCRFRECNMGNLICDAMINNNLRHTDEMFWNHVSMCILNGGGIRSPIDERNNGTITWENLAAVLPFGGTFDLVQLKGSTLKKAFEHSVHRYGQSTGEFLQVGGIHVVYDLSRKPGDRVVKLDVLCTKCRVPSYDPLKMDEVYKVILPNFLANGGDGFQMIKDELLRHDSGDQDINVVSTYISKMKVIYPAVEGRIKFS
As to the kind of experiment: CD73 enzymatic assay (luciferase-based indirect assay, CellTiter-Glo). The settings on record: 0.4 nM CD73, 150 μM AMP, 1 hour at room temperature. The format is biochemical. Summed up:
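N-His human CD73 (27-549) expressed in E. coli, 0.4 nM, incubated with 150 μM AMP and compound in 50 mM HEPES pH 7.4, 0.01% Tween-20, 1 h at RT. Remaining AMP read via CellTiter-Glo luminescence with 1 μM ATP after 30 min; IC50 from nonlinear regression of % inhibition.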
Background: Cellular ATP, detected with luciferase, serves as a proxy for viable cell number.

In a further assay the target is T2, human CD73 (Homo sapiens, UniProt P21589).
T2 construct: expressed in transfected cells
T2 sequence (P21589 27-549): T1 sequence (P21589 27-549)
Nature of the assay: Inhibitor activity against CD73 in cell based assay (CD73 expressing CHO-K1 cells). The settings on record: CHO-K1 cells expressing human CD73, 150 μM AMP, 4 hours of incubation; read-out: CHO-K1 CELL_VARIANT: CD73 IC50. Summed up:
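Stable human CD73 CHO-K1 cells, 1×10^4/well, exposed to an 8-point 1:3 compound series (top 10 μM, 0.2% DMSO) plus 150 μM AMP for 4 h. Remaining AMP in the supernatant was read by CellTiter-Glo 2.0 luminescence with 1 μM ATP after 30 min at room temperature. IC50 came from nonlinear regression of % inhibition against cell and media-only controls.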

Among the data in US12202818B2, “Compounds and methods for CD73 modulation and indications therefor” (Opna Bio SA, priority 2020, dated 2025) are IC50 values, retold here.

On to `O=c1[nH]ncc(N2CC[C@@H](Oc3cc(N4CCC(CO)(CCl)CC4)ccn3)C2)c1Cl` [P-0083, (R)-4-chloro-5-(3-((4-(4-(chloromethyl)-4-(hydroxymethyl)piperidin-1-yl)pyridin-2-yl)oxy)pyrrolidin-1-yl)pyridazin-3(2H)-one], for which the IC50 (in assay [1]; at human CD73) was 0.001 to 10 µM throughout.
In the case of `O=c1[nH]ncc(N2CC[C@@H](Oc3cc(C4=CCCC4)ccn3)C2)c1Cl` [P-0084, (R)-4-chloro-5-(3-((4-(cyclopent-1-en-1-yl)pyridin-2-yl)oxy)pyrrolidin-1-yl)pyridazin-3(2H)-one], the IC50 (in assay [1]; at human CD73) was 0.001 to 10 µM each time.
With `O=c1[nH]ncc(N2CC[C@@H](Oc3cc(C4CCCCC4)ccn3)C2)c1Cl` [P-0085, (R)-4-chloro-5-(3-((4-cyclohexylpyridin-2-yl)oxy)pyrrolidin-1-yl)pyridazin-3(2H)-one], the half-inhibitory concentration (IC50) (in assay [1]; on human CD73) was 0.001 to 10 µM throughout.
`Cc1nn(CC2CCO2)c(C)c1-c1ccnc(O[C@@H]2CCN(c3cn[nH]c(=O)c3Cl)C2)c1` (stereo partly drawn) [P-0086, 4-chloro-5-((3R)-3-((4-(3,5-dimethyl-1-(oxetan-2-ylmethyl)-1H-pyrazol-4-yl)pyridin-2-yl)oxy)pyrrolidin-1-yl)pyridazin-3(2H)-one]: the concentration for half-maximal inhibition (IC50) (in assay [1]; at human CD73) was 0.001 to 10 µM throughout.
Take `Cc1nn(CC2COC2)c(C)c1-c1ccnc(O[C@@H]2CCN(c3cn[nH]c(=O)c3Cl)C2)c1` [P-0087, (R)-4-chloro-5-(3-((4-(3,5-dimethyl-1-(oxetan-3-ylmethyl)-1H-pyrazol-4-yl)pyridin-2-yl)oxy)pyrrolidin-1-yl)pyridazin-3(2H)-one]: the half-inhibitory concentration (IC50) (in assay [1]; on human CD73) was 0.001 to 10 µM each time.
With `Cc1nn(C(CO)CI)c(C)c1-c1ccnc(O[C@@H]2CCN(c3cn[nH]c(=O)c3Cl)C2)c1` (stereo partly drawn) [P-0088, 4-chloro-5-((3R)-3-((4-(1-(1-hydroxy-3-iodopropan-2-yl)-3,5-dimethyl-1H-pyrazol-4-yl)pyridin-2-yl)oxy)pyrrolidin-1-yl)pyridazin-3(2H)-one], the half-maximal inhibitory concentration (IC50) (in assay [1]; at human CD73) was 0.001 to 10 µM each time.
As for `Cc1nn(C)c(C)c1-c1cc(O[C@@H]2CCN(c3cn[nH]c(=O)c3Cl)C2)nc(N)n1` [P-0089, (R)-5-(3-((2-amino-6-(1,3,5-trimethyl-1H-pyrazol-4-yl)pyrimidin-4-yl)oxy)pyrrolidin-1-yl)-4-chloropyridazin-3(2H)-one], the concentration for half-maximal inhibition (IC50) (in assay [1]; at human CD73) was 0.001 to 10 µM each time.
As for `Cc1noc(C)c1-c1ccnc(O[C@@H]2CCN(c3cnn(CCCO)c(=O)c3Cl)C2)c1` [P-0090, (R)-4-chloro-5-(3-((4-(3,5-dimethylisoxazol-4-yl)pyridin-2-yl)oxy)pyrrolidin-1-yl)-2-(3-hydroxypropyl)pyridazin-3(2H)-one], the IC50 (in assay [1]; on human CD73) was 0.001 to 10 µM in each case.
For `N#CC1CCC(c2ccnc(O[C@@H]3CCN(c4cn[nH]c(=O)c4Cl)C3)c2)CC1` (stereo partly drawn) [P-0091, (R)-4-(2-((1-(5-chloro-6-oxo-1,6-dihydropyridazin-4-yl)pyrrolidin-3-yl)oxy)pyridin-4-yl)cyclohexane-1-carbonitrile], the half-maximal inhibitory concentration (IC50) (in assay [1]; on human CD73) was 0.001 to 10 µM in each case.
As for `CC1COCCN1c1ccnc(O[C@@H]2CCN(c3cn[nH]c(=O)c3Cl)C2)c1` (stereo partly drawn) [P-0092, 4-chloro-5-((3R)-3-((4-(3-methylmorpholino)pyridin-2-yl)oxy)pyrrolidin-1-yl)pyridazin-3(2H)-one], the half-maximal inhibitory concentration (IC50) (in assay [1]; at human CD73) was 0.001 to 10 µM each time.
As to `CC1CCCN1c1ccnc(O[C@@H]2CCN(c3cn[nH]c(=O)c3Cl)C2)c1` (stereo partly drawn) [P-0093, 4-chloro-5-((3R)-3-((4-(2-methylpyrrolidin-1-yl)pyridin-2-yl)oxy)pyrrolidin-1-yl)pyridazin-3(2H)-one], the 50% inhibitory concentration (IC50) (in assay [1]; at human CD73) was 0.001 to 10 µM each time.
Regarding `CC1CCCCN1c1ccnc(O[C@@H]2CCN(c3cn[nH]c(=O)c3Cl)C2)c1` (stereo partly drawn) [P-0094, 4-chloro-5-((3R)-3-((4-(2-methylpiperidin-1-yl)pyridin-2-yl)oxy)pyrrolidin-1-yl)pyridazin-3(2H)-one], the 50% inhibitory concentration (IC50) (in assay [1]; at human CD73) was 0.001 to 10 µM in each case.
Take `Cc1nn(CC2(C)COC2)c(C)c1-c1ccnc(O[C@@H]2CCN(c3cn[nH]c(=O)c3Cl)C2)c1` [P-0095, (R)-4-chloro-5-(3-((4-(3,5-dimethyl-1-((3-methyloxetan-3-yl)methyl)-1H-pyrazol-4-yl)pyridin-2-yl)oxy)pyrrolidin-1-yl)pyridazin-3(2H)-one]: the concentration for half-maximal inhibition (IC50) (in assay [1]; at human CD73) was 0.001 to 10 µM each time.
`Cc1nn(CC2(C)COC2)c(C)c1-c1ccnc(O[C@H]2CN(c3cn[nH]c(=O)c3Cl)C[C@@H]2F)c1` [P-0096, 4-chloro-5-((3S,4S)-3-((4-(3,5-dimethyl-1-((3-methyloxetan-3-yl)methyl)-1H-pyrazol-4-yl)pyridin-2-yl)oxy)-4-fluoropyrrolidin-1-yl)pyridazin-3(2H)-one]: the IC50 (in assay [1]; at human CD73) was 0.001 to 10 µM each time.
As to `Cc1nn(C)c(C)c1-c1ccnc(O[C@@H]2CCN(c3cnn(CCCO)c(=O)c3C#N)C2)c1` [P-0097, (R)-2-(3-hydroxypropyl)-3-oxo-5-(3-((4-(1,3,5-trimethyl-1H-pyrazol-4-yl)pyridin-2-yl)oxy)pyrrolidin-1-yl)-2,3-dihydropyridazine-4-carbonitrile], the IC50 (in assay [1]; on human CD73) was 0.001 to 10 µM in each case.
Turning to `CC1(C)CC=C(c2ccnc(O[C@@H]3CCN(c4cn[nH]c(=O)c4Cl)C3)c2)CC1` [P-0099, (R)-4-chloro-5-(3-((4-(4,4-dimethylcyclohex-1-en-1-yl)pyridin-2-yl)oxy)pyrrolidin-1-yl)pyridazin-3(2H)-one], the IC50 (in assay [1]; on human CD73) was 0.001 to 10 µM throughout.
As to `N#CC1CC=C(c2ccnc(O[C@@H]3CCN(c4cn[nH]c(=O)c4Cl)C3)c2)CC1` (stereo partly drawn) [P-0100, 4-(2-(((R)-1-(5-chloro-6-oxo-1,6-dihydropyridazin-4-yl)pyrrolidin-3-yl)oxy)pyridin-4-yl)cyclohex-3-ene-1-carbonitrile], the IC50 (in assay [1]; at human CD73) was 0.001 to 10 µM throughout.
Turning to `CC(C)c1cc(Nc2cccnc2O[C@@H]2CCN(c3cnn(CCO)c(=O)c3Cl)C2)n(C)n1` [P-0101, (R)-4-chloro-2-(2-hydroxyethyl)-5-(3-((3-((3-isopropyl-1-methyl-1H-pyrazol-5-yl)amino)pyridin-2-yl)oxy)pyrrolidin-1-yl)pyridazin-3(2H)-one], the IC50 (usually the concentration at which inhibition is half-maximal) was in the range of 0.001 to 10 µM in assay [1] and 10 to 100 µM at human CD73.
For `O=c1c(Cl)c(N2CC[C@@H](Oc3ncccc3NC3CCC(F)(F)CC3)C2)cnn1CCO` [P-0102, (R)-4-chloro-5-(3-((3-((4,4-difluorocyclohexyl)amino)pyridin-2-yl)oxy)pyrrolidin-1-yl)-2-(2-hydroxyethyl)pyridazin-3(2H)-one], in that order: 0.001 to 10 µM and 0.001 to 10 µM.
With `CC(=O)N1CCN(c2ccnc(O[C@@H]3CCN(c4cn[nH]c(=O)c4Cl)C3)c2)[C@@H](C)C1` [P-0103, 5-((R)-3-((4-((S)-4-acetyl-2-methylpiperazin-1-yl)pyridin-2-yl)oxy)pyrrolidin-1-yl)-4-chloropyridazin-3(2H)-one], the values for the half-inhibitory concentration (IC50) (in assay [1]; at human CD73) were 0.001 to 10 µM and 10 to 100 µM, respectively.
The matching figures for `CC(=O)N1CCN(c2ccnc(O[C@@H]3CCN(c4cn[nH]c(=O)c4Cl)C3)c2)[C@H](C)C1` [P-0104, 5-((R)-3-((4-((R)-4-acetyl-2-methylpiperazin-1-yl)pyridin-2-yl)oxy)pyrrolidin-1-yl)-4-chloropyridazin-3(2H)-one]: 0.001 to 10 µM and 10 to 100 µM.
The matching figures for `Cc1ccnc(C(C)C)c1Nc1cccnc1O[C@@H]1CCN(c2cn[nH]c(=O)c2Cl)C1` [P-0105, (R)-4-chloro-5-(3-((3-((2-isopropyl-4-methylpyridin-3-yl)amino)pyridin-2-yl)oxy)pyrrolidin-1-yl)pyridazin-3(2H)-one]: 0.001 to 10 µM and 0.001 to 10 µM.
`COc1ccc2c(c1)cc(-c1ccnc(O[C@@H]3CCN(c4cnn(CCO)c(=O)c4Cl)C3)c1)n2C` [P-0106, (R)-4-chloro-2-(2-hydroxyethyl)-5-(3-((4-(5-methoxy-1-methyl-1H-indol-2-yl)pyridin-2-yl)oxy)pyrrolidin-1-yl)pyridazin-3(2H)-one]: the IC50 (in assay [1]; at human CD73) was 0.001 to 10 µM throughout.
`O=c1c(Cl)c(N2CC[C@@H](Oc3cc(N4[C@@H]5CC[C@H]4CC(F)(F)C5)ccn3)C2)cnn1CCO` [P-0107, 4-chloro-5-((R)-3-((4-((1R,5S)-3,3-difluoro-8-azabicyclo[3.2.1]octan-8-yl)pyridin-2-yl)oxy)pyrrolidin-1-yl)-2-(2-hydroxyethyl)pyridazin-3(2H)-one]: the concentration for half-maximal inhibition (IC50) lay within 0.001 to 10 µM in assay [1] and 10 to 100 µM on human CD73.
